Test results taken from article PMC4754898, “Discovery of Radioiodinated Monomeric Anthraquinones as a Novel Class of Necrosis Avid Agents for Early Imaging of Necrotic Myocardium” (Scientific Reports, 2016).

Key:
[1] = tested on: necrotic muscle; experiment: Biodistribution in mice with muscular necrosis (gamma counting); format: in vivo, Kunming mice; settings: model mice, 0.37 MBq i.v.
Procedure: All animals were given 0.12% potassium iodide in drinking water from 3 days before the experiment till the end of experiment to protect the thyroid gland from taking up free ^131I.
Each mouse was intramuscularly injected with 0.1 mL absolute alcohol in the left hind limb to induce muscular necrosis.
At least 12 h after recovery from surgery, each model mouse was intravenously administrated with 0.37 MBq of ^131I-anthraquinones and each rat was intravenously injected with 3.7 MBq of ^131I-rhein or ^131I-Hyp for pharmacological evaluations. All animals were intravenously administered with 0.1 ml of 1% Evans blue solution for intravital staining of necrosis that helped to selectively sample bluish necrotic tissues for radioactivity quantification.
One hundred and twenty model mice were randomly divided into 24 groups for eight tracers (n = 5 per compound and per time point). Mice were sacrificed by cervical dislocation at 2 h, 12 h and 24 h after administration. Necrotic and normal tissues of interest (blood, thyroid, lung, heart, liver, spleen, stomach, kidney, viable/necrotic muscle) were sampled, and wet weighed with the radioactivity measured by a γ-counter. Background radiation and physical decay were corrected during counting. The results were expressed as percentage of the injected dose per gram of tissue (%ID/g). Ratios of radioactivity concentrations between in necrotic and viable muscle were calculated.

[2] = tested on: necrotic muscle; experiment: TTC staining and quantitative autoradiography of necrotic and viable muscle; set-up: species or system Kunming mice; settings: mouse, in vivo
Procedure: The necrotic muscles were stained in 2% TTC solution at 37 °C for 15 min and digitally photographed, then cut into 50 μm frozen sections with a cryotome (Shandon FSE, Thermo Fisher Scientific Co., Waltham, MA, USA) for autoradiography. Autoradiographs of these sections were obtained by exposure to a high-performance storage phosphor screen (Cyclone; Canberra-Packard, Ontario, Canada) for 6–48 h and digitally photographed with Optiquant software (Pacard, Packard Meriden, CT, USA). Relative tracer concentrations in necrotic muscles were evaluated by regions of interest analysis and the results were compared with that from the corresponding viable muscles.

[3] = In vitro stability of 131I-anthraquinones in rat serum by TLC; format: in vitro ADME; settings: 37 °C, 24 h
Procedure: Iodogen ([…]-3a, 6a-diphenylglycouracil; Sigma, St. Louis, MO) was dissolved in dichloromethane and deposited on the wall of tubes as a thin film. Radioiodination was initiated by adding dimethylsulfoxide (DMSO) solutions of each anthraquinone (1.25 mg/mL) and Na^131I solutions (4:1, v/v) into Iodogen-coated tube, adjusting pH with phosphate buffered saline (PBS, pH 7.4). Then these mixtures were shaken and incubated at 45 °C for 2–4 h, and radiochemical purity was determined by thin-layer chromatography (TLC) using Whatman No.1 filter paper and 0.1 M hydrochloric acid as the developing solvent. Then the solvent was evaporated, the paper was cut in half and measured the radioactivity by direct γ-counting (WIZARD1470; PerkinElmer, USA). For obtaining the injectants, these mixtures were diluted with propylene glycol and polyethylene glycol 400 (1:1, v/v), respectively.
In vitro stability of eight ^131I-anthraquinones were tested in rat serum, 0.1 mL injectant was added to 0.9 mL rat serum (1:9, v/v) and incubated at 37 °C. Then radiolabeling stability was determined by TLC using the procedure described above at the time points of 0.5 h, 6 h, 12 h and 24 h, respectively.

[4] = tested on: necrotic myocardium; experiment: SPECT/CT imaging of rats with reperfused MI or sham operation; format: in vivo, Sprague-Dawley rats; settings: 6 h after administration
[5] = Pharmacokinetics (blood clearance) in normal rats; format: in vivo, Sprague-Dawley rats
Procedure: For the pharmacokinetic study, six healthy rats were intravenously injected with ^131I-rhein under anesthesia. The blood samples (10 μL) were collected by means of a tail incision at 5 min, 10 min, 30 min, 1 h, 2 h, 4 h, 6 h, 8 h, 10 h, 12 h and 24 h after administration. The radioactivity of blood samples was measured and the results were expressed as megabecquerel per liter (MBq/L). The blood pharmacokinetic parameters of the radiotracer were analyzed by using the non-compartmental analysis of Drug and Statistics for windows 2.0 software.

[6] = In vitro stability of 131I-rhein in rat serum by radio-HPLC; format: in vitro ADME; settings: 37 °C, 24 h
Procedure: Reversed-phase high performance liquid chromatography (RP-HPLC) was equipped with Waters 2998 PDA detector, HERM LB500 radiometric detector (Berthold Technologies, Germany), a pump (Waters 2695) and a Alltima C18 column (250 × 4.6 mm, 5 μm, GRACE). The mobile phase was methanol/0.1% phosphoric acid in water (80:20, v/v), the flow rate was 1.0 mL/min and the temperature of column was 30 °C. All solvents used for HPLC analysis were HPLC grade.
^131I-rhein was incubated in rat serum at 37 °C for 24 h, and the mixture was mixed with methanol at a ratio of 2:3 and shaken. After centrifuging the mixture at 12000 rpm for 10 min, the supernatant was collected and passed through 0.22-μm pore-size filters (Membrana, Wuppertal, NRW, Germany) for in vitro stability analysis by radio-HPLC as described above.

[7] = tested on: necrotic myocardium; settings: rat, in vivo, iv
[8] = tested on: infarcted myocardium; experiment: Autoradiography of MI heart sections from model rats; format: in vivo, Sprague-Dawley rats; settings: 50 μm frozen sections

SMILES: O=C1c2ccccc2C(=O)c2c1ccc([131I])c2O [^131I-1-hydroxyanthraquinone]
- Blood uptake ([1]; 2 h after administration): 3.19 ± 0.35 %ID/g
- Heart uptake ([1]; 2 h after administration): 0.58 ± 0.06 %ID/g
- Kidney uptake ([1]; 2 h after administration): 1.64 ± 0.17 %ID/g
- Liver uptake ([1]; 2 h after administration): 1.07 ± 0.11 %ID/g
- Lung uptake ([1]; 2 h after administration): 1.12 ± 0.09 %ID/g
- N/V ratio (necrotic muscle/viable muscle) ([1]; 2 h after administration): 3.71 ± 0.37
- Necrotic.m (necrotic muscle) uptake ([1]; 2 h after administration): 2.75 ±0.31 %ID/g
- Spleen uptake ([1]; 2 h after administration): 1.04 ± 0.08 %ID/g
- Stomach uptake ([1]; 2 h after administration): 1.40 ± 0.13 %ID/g
- Thyroid uptake ([1]; 2 h after administration): 1.53 ± 0.21 %ID/g
- Viable.m (viable muscle) uptake ([1]; 2 h after administration): 0.74 ± 0.05 %ID/g
- Blood uptake ([1]; 12 h after administration): 0.66 ± 0.04 %ID/g
- Heart uptake ([1]; 12 h after administration): 0.11 ± 0.01 %ID/g
- Kidney uptake ([1]; 12 h after administration): 0.37 ± 0.02 %ID/g
- Liver uptake ([1]; 12 h after administration): 0.24 ± 0.03 %ID/g
- Lung uptake ([1]; 12 h after administration): 0.33 ± 0.04 %ID/g
- N/V ratio (necrotic muscle/viable muscle) ([1]; 12 h after administration): 4.22 ± 0.02
- Necrotic.m (necrotic muscle) uptake ([1]; 12 h after administration): 0.59 ± 0.05 %ID/g
- Spleen uptake ([1]; 12 h after administration): 0.26 ± 0.02 %ID/g
- Stomach uptake ([1]; 12 h after administration): 0.82 ± 0.09 %ID/g
- Thyroid uptake ([1]; 12 h after administration): 0.46 ± 0.03 %ID/g
- Viable.m (viable muscle) uptake ([1]; 12 h after administration): 0.14 ± 0.01 %ID/g
- Blood uptake ([1]; 24 h after administration): 0.07 ± 0.01 %ID/g
- Heart uptake ([1]; 24 h after administration): 0.02 ± 0.00 %ID/g
- Kidney uptake ([1]; 24 h after administration): 0.04 ± 0.01 %ID/g
- Liver uptake ([1]; 24 h after administration): 0.08 ± 0.01 %ID/g
- Lung uptake ([1]; 24 h after administration): 0.05 ± 0.01 %ID/g
- N/V ratio (necrotic muscle/viable muscle) ([1]; 24 h after administration): 5.83 ± 0.29
- Necrotic.m (necrotic muscle) uptake ([1]; 24 h after administration): 0.35 ± 0.02 %ID/g
- Spleen uptake ([1]; 24 h after administration): 0.02 ± 0.00 %ID/g
- Stomach uptake ([1]; 24 h after administration): 0.09 ± 0.01 %ID/g
- Thyroid uptake ([1]; 24 h after administration): 0.33 ± 0.04 %ID/g
- Viable.m (viable muscle) uptake ([1]; 24 h after administration): 0.06 ± 0.00 %ID/g
- necrotic/viable muscle ratio by quantitative autoradiography [2]: 9.16 ± 0.78
- stability after incubation in rat plasma (TLC) [3]: 87.93% ± 0.45%

SMILES: O=C(O)c1cc(O)c2c(c1)C(=O)c1ccc([131I])c(O)c1C2=O [^131I-rhein]
- SPECT/CT imaging outcome in the heart [4]: Relatively high uptake as a hot spot showed up in the heart of the model rat
- Blood uptake ([1]; 2 h after administration): 3.14 ± 0.32 %ID/g
- Heart uptake ([1]; 2 h after administration): 0.47 ± 0.05 %ID/g
- Kidney uptake ([1]; 2 h after administration): 2.68 ± 0.47 %ID/g
- Liver uptake ([1]; 2 h after administration): 2.03 ± 0.21 %ID/g
- Lung uptake ([1]; 2 h after administration): 0.95 ± 0.06 %ID/g
- N/V ratio (necrotic muscle/viable muscle) ([1]; 2 h after administration): 5.84 ± 0.10
- Necrotic.m (necrotic muscle) uptake ([1]; 2 h after administration): 4.61 ± 0.39 %ID/g
- Spleen uptake ([1]; 2 h after administration): 0.97 ± 0.13 %ID/g
- Stomach uptake ([1]; 2 h after administration): 1.40 ± 0.16 %ID/g
- Thyroid uptake ([1]; 2 h after administration): 1.56 ± 0.17 %ID/g
- Viable.m (viable muscle) uptake ([1]; 2 h after administration): 0.79 ± 0.08 %ID/g
- Blood uptake ([1]; 12 h after administration): 1.20 ± 0.13 %ID/g
- Heart uptake ([1]; 12 h after administration): 0.28 ± 0.03 %ID/g
- Kidney uptake ([1]; 12 h after administration): 2.03 ± 0.12 %ID/g
- Liver uptake ([1]; 12 h after administration): 1.55 ± 0.12 %ID/g
- Lung uptake ([1]; 12 h after administration): 0.62 ± 0.05 %ID/g
- N/V ratio (necrotic muscle/viable muscle) ([1]; 12 h after administration): 7.26 ± 0.23
- Necrotic.m (necrotic muscle) uptake ([1]; 12 h after administration): 4.06 ± 0.16 %ID/g
- Spleen uptake ([1]; 12 h after administration): 0.65 ± 0.08 %ID/g
- Stomach uptake ([1]; 12 h after administration): 1.05 ± 0.11 %ID/g
- Thyroid uptake ([1]; 12 h after administration): 0.78 ± 0.07 %ID/g
- Viable.m (viable muscle) uptake ([1]; 12 h after administration): 0.56 ± 0.04 %ID/g
- Blood uptake ([1]; 24 h after administration): 0.15 ± 0.01 %ID/g
- Heart uptake ([1]; 24 h after administration): 0.08 ± 0.01 %ID/g
- Kidney uptake ([1]; 24 h after administration): 0.65 ± 0.07 %ID/g
- Liver uptake ([1]; 24 h after administration): 0.49 ± 0.05 %ID/g
- Lung uptake ([1]; 24 h after administration): 0.18 ± 0.03 %ID/g
- N/V ratio (necrotic muscle/viable muscle) ([1]; 24 h after administration): 12.33 ± 0.67
- Necrotic.m (necrotic muscle) uptake ([1]; 24 h after administration): 0.74 ± 0.04 %ID/g
- Spleen uptake ([1]; 24 h after administration): 0.29 ± 0.03 %ID/g
- Stomach uptake ([1]; 24 h after administration): 0.09 ± 0.02 %ID/g
- Thyroid uptake ([1]; 24 h after administration): 0.32 ± 0.06 %ID/g
- Viable.m (viable muscle) uptake ([1]; 24 h after administration): 0.06 ± 0.00 %ID/g
- necrotic/viable muscle ratio by quantitative autoradiography [2]: 17.64 ± 1.28
- radioactivity concentration in blood as share of peak radioactivity concentration ([5]; 6 h): 23.47% ± 1.91%
- AUC(0 –∞) ([5]; i.v. 3.7 MBq, blood): 211.76 ± 31.18 MBq/L*h
- CLZ (clearance) ([5]; i.v. 3.7 MBq, blood): 0.67 ± 0.17 mL/min/kg
- Cmax ([5]; i.v. 3.7 MBq, blood): 42.40 ± 5.41 MBq/L
- Tmax ([5]; i.v. 3.7 MBq, blood): 4.8 ± 0 min
- VZ ([5]; i.v. 3.7 MBq, blood): 0.42 ± 0.06 L/kg
- t1/2z (elimination half-life) ([5]; i.v. 3.7 MBq, blood): 8.20 ± 0.49 h
- AUC(0 –t) ([5]; i.v. 3.7 MBq, within 24 h, blood): 187.46 ± 28.26 MBq/L*h
- intact parent tracer after incubation in rat serum (radio-HPLC) [6]: 91.75% ± 0.47%
- stability after incubation in rat plasma (TLC) [3]: 93.17% ± 0.38%
- necrotic/viable myocardium ratio [7]: about 9.81 ± 0.61
- radioactivity concentration in blood ([7]; 6 h): 0.36 ± 0.03 %ID/g
- radioactivity concentration in infarcted myocardium ([7]; 6 h): 1.18 ± 0.03 %ID/g
- radioactivity concentration in kidney ([7]; 6 h): 0.68 ± 0.04 %ID/g
- radioactivity concentration in liver ([7]; 6 h): 0.14 ± 0.01 %ID/g
- radioactivity concentration in lung ([7]; 6 h): 0.24 ± 0.02 %ID/g
- radioactivity concentration in viable myocardium ([7]; 6 h): 0.12 ± 0.01 %ID/g
- activity in infarcted myocardium relative to viable myocardium (autoradiography) [8]: 14 fold
